Calls of active or inactive are those of the source. The calls are words filed in the database; no cut-off is given here.

Drawing on ChEMBL document CHEMBL5385901, “Drug repurposing of propafenone to discover novel anti-tumor agents by impairing homologous recombination to delay DNA damage recovery of rare disease conjunctival melanoma” (Eur J Med Chem, 2023), this text covers IC50 and inhibition for 21 molecules.

The nature of data set [1]: Antiproliferative activity against human CM-AS16 cells assessed as cell growth inhibition incubated for 72 hrs by CCK8 assay. It is filed as functional, cell-based. The settings on record: CM-AS16, 72 h. On the technique in general: Tetrazolium dyes change colour on reduction, which living cells bring about.
Data set [2] relates to CRMM-1. Briefly: Inhibition of homologous recombination in human CRMM-1 cells at 10 uM incubated for 12 hrs by real-time PCR analysis. The data set is classed as functional, cell-based.
In a further data set the test system is CRMM-2. Nature of the data set: Antiproliferative activity against human CRMM-2 cells assessed as cell growth inhibition incubated for 72 hrs by CCK8 assay. The data set is classed as functional, cell-based. The settings on record: CRMM-2, 72 h.
Data set [3] can be described thus: Antiproliferative activity against human PIG1 cells assessed as cell growth inhibition incubated for 72 hrs by CCK8 assay. The data set is classed as toxicity, cell-based.
Data set [4] in a line: Antiproliferative activity against human CM2005.1 cells assessed as cell growth inhibition incubated for 72 hrs by CCK8 assay. The settings on record: CM2005.1, 72 h. The data set is classed as functional, cell-based.
The nature of data set [5]: Antiproliferative activity against human HL7702 cells assessed as cell growth inhibition incubated for 72 hrs by CCK8 assay. The data set is classed as toxicity, cell-based. The following applies: HL7702 (L02) cells.
For data set [6], the system named is CRMM-1. Nature of the data set: Antiproliferative activity against human CRMM-1 cells assessed as cell growth inhibition incubated for 72 hrs by CCK8 assay. The data set is classed as functional, cell-based. The settings on record: CRMM-1, 72 h.
A short description of data set [7]: Inhibition of homologous recombination in human CRMM-1 cells at 10 uM incubated for 12 hrs by real-time PCR analysis relative to control. The data set is classed as functional.

One may read the IC50 as the midpoint of a concentration-inhibition curve. For orientation: inhibition means the drop in the measured response relative to a control, in per cent. `CCCN1CC(COc2ccccc2C(=O)CCc2ccccc2)OC1=O` (stereo unspecified): in data set [1], the IC50 is above 100 µM. Also, the inhibition entry with CRMM-1 [2] is “inactive”.
On to `O=C(CCCc1ccccc1)c1c(OCc2cccnc2)ccc2ccccc12`, for which the IC50 worked out at 48.5 µM with CRMM-2, 58.1 µM in data set [4] and 16 µM with CRMM-1 [6]. Besides, the figures for the IC50 at 72 h in data set [3] and in data set [5] were 24.9 µM and 64.9 µM, respectively. Moreover, in the data set with CRMM-1 [2], the inhibition entry was “inactive”.
`CCCCCNCCCOc1ccccc1C(=O)CCCc1ccccc1`: the IC50 came to 5.5 µM in data set [1], 1.3 µM with CRMM-2, 3.8 µM in data set [4] and 2.3 µM in the data set with CRMM-1 [6]. The IC50 at 72 h in data set [3] came out at 1.9 µM; in data set [5], 2.4 µM. For the same molecule, the inhibition entry in the data set on CRMM-1 [2] was “inactive”.
Consider `CCCN(C)CC(O)COc1ccccc1C(=O)CCc1ccccc1` (stereo unspecified), for which the IC50 in data set [1] is 22.6 µM; in the data set on CRMM-2, 14.6 µM; in data set [4], 61.2 µM; in the data set on CRMM-1 [6] it was 48.7 µM. The IC50 at 72 h is 71.9 µM in data set [3] and 97.2 µM in data set [5]. In data set [7], the inhibition at 10 µM was 30.3%.
For `CCCNCCCOc1c(C(=O)CCCc2ccccc2)ccc2ccccc12`, the IC50 in data set [1] is 10.8 µM; with CRMM-2, 7.5 µM; in data set [4] it was 11.7 µM; in the data set on CRMM-1 [6] it was 7.2 µM. The results for the IC50 at 72 h in data set [3] and in data set [5] were 14.5 µM and 28.4 µM, respectively. The inhibition at 10 µM in data set [7] is 59.3%.
On to `CCCNCCCOc1ccccc1C(=O)CCc1ccccc1`, for which the IC50 in data set [1] was 10 µM; in the data set on CRMM-2, 35.9 µM; in data set [4], 68.5 µM; with CRMM-1 [6], 54.5 µM. Further, the IC50 at 72 h came to 66.4 µM in data set [3] and 64.8 µM in data set [5]. In addition, the inhibition at 10 µM in data set [7] worked out at 65%.
Take `C=CCNCCCOc1ccc2ccccc2c1C(=O)CCCc1ccccc1`: the 50% inhibitory concentration (IC50) in data set [1] came out at 3.8 µM; in the data set on CRMM-2 it was 3.1 µM; in data set [4] it was 7.6 µM; with CRMM-1 [6], 2.2 µM. In addition, the IC50 at 72 h stood at 11.4 µM in data set [3] and 10.5 µM in data set [5]. For the same molecule, the inhibition at 10 µM in data set [7] came out at 55.7%.
Take `CCCCCCCNCC(O)COc1ccccc1C(=O)CCc1ccccc1` (stereo unspecified): the IC50 stood at 5.6 µM in data set [1], 6.6 µM in the data set with CRMM-2, 4.6 µM in data set [4] and 2.6 µM in the data set with CRMM-1 [6]. For the same molecule, the IC50 at 72 h in data set [3] turned out to be 8.8 µM; in data set [5], 5.7 µM. The inhibition at 10 µM in data set [7] turned out to be 53.9%.
For `CCCCCC(O)COc1ccccc1C(=O)CCc1ccccc1` (stereo unspecified), the IC50 is 13.9 µM in data set [1], 54.5 µM in the data set with CRMM-2, 46.3 µM in data set [4] and 16.6 µM in the data set with CRMM-1 [6]. Further, the concentration for half-maximal inhibition (IC50) at 72 h in data set [3] is above 100 µM; in data set [5] it was 22.3 µM. Also, in data set [7], the inhibition at 10 µM turned out to be 51.2%.
As for `C=CC(=O)NCCCOc1ccc2ccccc2c1C(=O)CCCc1ccccc1`, the IC50 came to 18.2 µM in data set [1], 17.2 µM in the data set with CRMM-2, 36.9 µM in data set [4] and 17.3 µM in the data set with CRMM-1 [6]. Besides, the IC50 at 72 h is 25.7 µM in data set [3] and 70.2 µM in data set [5]. For the same molecule, in data set [7], the inhibition at 10 µM came to 66.9%.
Consider `O=C(CC(F)(F)F)NCCCOc1ccc2ccccc2c1C(=O)CCCc1ccccc1`, for which the IC50 in data set [1] amounted to 21.4 µM; with CRMM-2, 42.2 µM; in data set [4], 19.4 µM; with CRMM-1 [6], 9.8 µM. Further, the results for the IC50 at 72 h in data set [3] and in data set [5] were 18.5 µM and 29.9 µM, respectively. Besides, the inhibition at 10 µM in data set [7] stood at 40.1%.
As for `CCCNCC(O)COc1ccccc1C(=O)Cc1ccccc1` (stereo unspecified), the IC50 turned out to be 40.7 µM in data set [1], 30.6 µM in the data set with CRMM-2, 60 µM in data set [4] and 45.9 µM in the data set with CRMM-1 [6]. Also, the half-maximal inhibitory concentration (IC50) at 72 h in data set [3] and in data set [5] was above 100 µM each time. Further, in data set [7], the inhibition at 10 µM was found to be 57.9%.
In the case of `CCCNCC(O)COc1ccccc1C(=O)CCCc1ccccc1` (stereo unspecified), the IC50 turned out to be 4.9 µM in data set [1], 28.7 µM with CRMM-2, 25.2 µM in data set [4] and 25.3 µM in the data set on CRMM-1 [6]. For the same molecule, the results for the IC50 at 72 h in data set [3] and in data set [5] were 33.2 µM and 46 µM, respectively. In addition, the inhibition at 10 µM in data set [7] was 62.2%.
For `O=C(CCCc1ccccc1)c1c(OCCCN2CCOCC2)ccc2ccccc12`, the IC50 was 4.2 µM in data set [1], 4.2 µM in the data set on CRMM-2, 1 µM in data set [4] and 2.3 µM with CRMM-1 [6]. The half-maximal inhibitory concentration (IC50) at 72 h in data set [3] stood at 18.3 µM; in data set [5], 31.8 µM. For the same molecule, the inhibition at 10 µM in data set [7] was 83.2%.
Consider `CCCCNCCCOc1ccccc1C(=O)CCCc1ccccc1`, for which the 50% inhibitory concentration (IC50) in data set [1] stood at 4.9 µM; in the data set on CRMM-2, 1.1 µM; in data set [4], 5.4 µM; with CRMM-1 [6], 1.8 µM. In addition, the IC50 at 72 h in data set [3] was 9.1 µM; in data set [5], 3.7 µM. Moreover, the inhibition at 10 µM in data set [7] came out at 38.3%.
As for `C=C(CCc1ccccc1)c1ccccc1OCC(O)CNCCC` (stereo unspecified), the IC50 in data set [1] was determined as 4 µM; in the data set on CRMM-2, 9.5 µM; in data set [4], 9.1 µM; in the data set on CRMM-1 [6] it was 6.3 µM. The IC50 at 72 h in data set [3] is 16.1 µM; in data set [5], 14.8 µM. Further, the inhibition result with CRMM-1 [2] is “inactive”.
Consider `CCCCCCCNCCCOc1ccccc1C(=O)CCCc1ccccc1`, for which the IC50 in data set [1] amounted to 6.3 µM; in the data set with CRMM-2 it was 0.6 µM; in data set [4], 1.3 µM; in the data set on CRMM-1 [6], 1.1 µM. Further, the IC50 at 72 h in data set [3] came to 0.5 µM; in data set [5] it was 0.7 µM. Moreover, the inhibition at 10 µM in data set [7] is 64.8%.
Turning to `C#CCNCCCOc1ccc2ccccc2c1C(=O)CCCc1ccccc1`, the IC50 was 4.6 µM in data set [1], 4 µM in the data set with CRMM-2, 11.7 µM in data set [4] and 6.4 µM in the data set on CRMM-1 [6]. Moreover, the results for the IC50 at 72 h in data set [3] and in data set [5] were 16 µM and 30.7 µM, respectively. The inhibition at 10 µM in data set [7] stood at 53.2%.
As for `CC(C)(C)CNCCCOc1ccc2ccccc2c1C(=O)CCCc1ccccc1`, the IC50 in data set [1] amounted to 5 µM; in the data set on CRMM-2 it was 5.1 µM; in data set [4] it was 5.1 µM; in the data set with CRMM-1 [6] it was 8.7 µM. Moreover, the figures for the IC50 at 72 h in data set [3] and in data set [5] were 4 µM and 11.1 µM, respectively. For the same molecule, in data set [7], the inhibition at 10 µM came out at 52.4%.
With `O=C(CCCc1ccccc1)c1c(OCCCN2CCC2)ccc2ccccc12`, the IC50 in data set [1] came out at 32.3 µM; in the data set on CRMM-2, 38.4 µM; in data set [4] it was 32.9 µM; in the data set with CRMM-1 [6], 20.6 µM. Further, the results for the IC50 at 72 h in data set [3] and in data set [5] were 42.1 µM and 69.6 µM, respectively. For the same molecule, the inhibition at 10 µM in data set [7] came out at 17.9%.
On to `CCCNCCCOc1cc2c(cc1C(=O)CCCc1ccccc1)OCCO2`, for which the IC50 stood at 4.4 µM in data set [1], 8.8 µM in the data set with CRMM-2, 11.6 µM in data set [4] and 5.5 µM in the data set with CRMM-1 [6]. Moreover, the IC50 at 72 h came out at 15.4 µM in data set [3] and 27.7 µM in data set [5]. In addition, in the data set with CRMM-1 [2], the inhibition result is “inactive”.
